According to patent publication US20220304348A1, “TRITERPENE GLUCURONIDES AND THEIR USE AS FLAVOR MODIFIERS” (Firmenich SA, priority 2019, published 2022):

Assay: Sweetness enhancement taste panel (sweetness and licorice taste ratings of 5% sucrose solutions)
Assay type: in vivo, human
Conditions: taste panel rating on a scale from 0 to 10; compound at 50 ppm in 5% sucrose solution in Henniez water; no flavor modifier = 5.0
Protocol: A test compounds were tested for its sweetness enhancement of a 5% (w/w) aqueous solution of sucrose. Taste panelists were asked to taste the following 5% sucrose solutions in Henniez water and rate their sweetness on a scale from 0 to 10, and to rate the presence of any licorice taste in the sample on a scale from 0 to 10.

SMILES: CC1(C)[C@@H](O[C@@H]2O[C@H](C(=O)O)[C@@H](O)[C@H](O)[C@H]2O)CC[C@]2(C)[C@H]3C(=O)C=C4[C@@H]5C[C@@](C)(C(=O)O)CC[C@]5(C)CC[C@@]4(C)[C@]3(C)CC[C@@H]12 [Compound 108, β-Glycyrrhizin Monoglucuronate]
- Sweetness (0-10): 5.8
